Reference: patent US9119806B2, “Culturing circular ssDNA viruses for the production of vaccines” (priority 2007, dated 2015)

Columns and labels:
[1] = test system: PCV2 infection of PK-15 cells; assay: Number of PCV2-infected PK-15 cells (IPMA) with endosomal-lysosomal acidification inhibitors with or without IFN-gamma; type: cell-based, Porcine circovirus 2; conditions: for effect on PCV2 infection in IFN-gamma treated cells (in words): PK-15 pre-treated with 500 U/ml IFN-gamma 24 hours; for effect on PCV2 infection in IFN-gamma treated cells (in words) / effect on PCV2 infection compared to control (in words): inhibitor 24 hours after inoculation, 36 hpi; for effect on PCV2 infection compared to control (in words): PK-15 without IFN-gamma; for highest concentration exerting maximal effect without affecting cell viability (chosen): two-fold dilution in PK-15 cells, Stoon-1010
Procedure: Endosomal-lysosomal system acidification was inhibited using lysosomotropic weak bases (ammonium chloride and chloroquine diphosphate) and carboxylic ionophore monensin. All chemical compounds were purchased from Sigma. In a first set of experiments, a two-fold dilution of each inhibitor in PK-15 cells using Stoon-1010 was performed to determine the highest concentration of each inhibitor that exerted the maximal effect without affecting cell viability. Finally, 25 mM ammonium chloride, 125 μM chloroquine diphosphate and 6 μM monensin were chosen. PK-15 cells were cultivated for 24 hours and then inoculated with a dose of PCV2 for 1 hour at 37° C. The viral inoculum was washed-off and cells were further incubated in culture medium with or without inhibitors of endosomal-lysosomal acidification for 24 hours. Then, the culture medium containing endosomal-lysosomal system inhibitors was replaced with fresh culture medium without inhibitors. After the first cycle of PCV2 replication, at 36 hpi, cells were fixed with methanol at −20° C. for 10 minutes. Cells were stored at −20° C. until they were stained using an immunoperoxidase monolayer assay (IPMA) as described by Sanchez et al. (2003, Vet Microbiol 95, 15-25).
PK-15 cells were pre-treated with or without 500 U/ml IFN-gamma for 24 hours before they were inoculated with the same dose of PCV2 for 1 hour at 37° C. The viral inoculum was washed-off and cells were further incubated in culture medium containing inhibitors of endosomal-lysosomal acidification for 24 hours. Then, the culture medium containing endosomal-lysosomal system inhibitors was replaced with fresh culture medium without inhibitors. After the first cycle of PCV2 replication, at 36 hours post-inoculation cells were fixed with methanol at −20° C. for 10 minutes. Cells were stored at −20° C. until they were stained using an immunoperoxidase monolayer assay (IPMA) as described above. The number of infected cells per well in mock-treated cells inoculated with an equal dose of PCV2 as treated cells was used as the referent, and all results are expressed as a percentage of this referent. All experiments were performed three times, and each condition in a single experiment was performed in duplicate.

[2] = test system: PCV2 strain Stoon-1010 in PK-15 cells; assay: Progeny PCV2 production in PK-15 cells with acidification inhibitors and/or IFN-gamma; type: cell-based, Porcine circovirus 2
Procedure: For progeny virus production assays, 2×10^5 cells were seeded in every well of 24-well cell culture plates. Cells were pre-treated with or without 500 U/ml IFN-gamma at 6 hours post seeding. At 24 h post-seeding, cells were washed and inoculated with the prototype PCV2 strain Stoon-1010 at an m.o.i. of 0.3 for 1 hour at 37° C. The viral inoculum was washed-off and cells were further incubated in 1 ml of culture medium with or without 25 mM ammonium chloride, 125 μM chloroquine diphosphate and/or 6 μM monensin for 24 hours. Then, the culture medium with or without endosomal-lysosomal system acidification inhibitors was replaced with fresh culture medium without inhibitors. At 1, 24, 48 and 72 hours post-inoculation the supernatant was collected. Subsequently the culture was washed once with 1 ml PBS. Both the supernatant and the washing fluid were centrifuged for 10 minutes at 15,000×g to pellet cells and debris. The centrifuged supernatant and washing fluids were combined and considered to contain the extracellular virus. Both pellets and cell cultures were freeze-thawed three times and considered to contain the intracellular virus. Intra- and extracellular virus titres were determined by titration on PCV-negative PK-15 cells as described previously. Viral antigens were detected using an IPMA as described above and PCV2 titre was expressed as log10 TCID50 per 10^5 cells.

[3] = test system: PCV2-infected PK-15 cells; assay: Number of PCV2-infected PK-15 cells (IPMA) after treatment with cytokines or natural cytokine sources; type: cell-based, Porcine circovirus 2; conditions: PK-15 cells; cytokine dilution series, before, during or after inoculation; 36 h
Procedure: PK-15 cells were seeded and maintained in culture medium containing 5%-10% fetal bovine serum (FBS), 0.3 mg/ml glutamine, 100 U/ml penicillin, 0.1 mg/ml streptomycin, 0.1 mg/ml kanamycin dissolved in minimal essential medium (MEM) (Gibco BRL®, Grand Island, USA) or dissolved in RPMI-1640 (GIBCO BRL®, Grand Island, USA) containing 1% nonessential amino acids (100×; GIBCO BRL®, Grand Island, USA) and 1 mM sodium pyruvate (GIBCO BRL®, Grand Island, USA). Cells were seeded at a concentration of 150,000 cells per ml of medium. For the detection of total viral antigen positive cells, the cells were seeded in 96-well microtiter plates (Nunc) (15,000-20,000 cells per well). To detect the expression of specific viral antigens, cells were seeded on sterile cover slips in Leighton tubes (150,000 cells per tube) and finally progeny virus production assays were performed in 24-well plates containing […].
(§1) In order to use cells, more related to the target cells in vivo, the monocytic cell line 3D4/31 was used to confirm the effect of the different cytokines on the number of PCV2-infected cells. The 3D4/31 cell line is a porcine monomyeloid cell lines that was established following transfection of primary porcine alveolar macrophage cultures with plasmid pSV3neo, carrying genes for neomycin resistance and SV40 large T antigen. (Weingartl et al. (2002) J Virol Methods. 10, 203-216). These cells were maintained in a 1:1 mixture of RPMI-1640 (Invitrogen) and DMEM (Invitrogen) supplemented with 10% fetal bovine serum, 0.3 mg/ml glutamine, 100 U/ml penicillin, 0.1 mg/ml streptomycin, 0.1 mg/ml kanamycin and 1% non-essential amino acids 100× (GIBCO BRL®, Grand Island, USA). These experiments were also performed in 96-well plates containing the same number of cells. Furthermore, to monitor the effect of IFN-gamma on the entry of PCV2 virion-like particles was determined, 3D4/31 cells were seeded at 2×10^5 cells/ml of medium onto microscopic slides mounted with an 8 well cell culture silicone chamber (Vivascience AG, Hanover). In all inoculations, the same PCV2-strain (Stoon-1010) was used at a multiplicity of infection of 0.01. The virus was diluted in MEM and inoculated on the cell cultures by incubating cells and virus for 1 hour at 37° C. After 1 hour, the inoculum was removed, the cultures were washed twice with MEM and new culture medium was added.
(§2) The influence of the cytokines on the infection of PCV2 in PK-15 and 3D4/31 cells was determined by adding two-fold-dilution series of the cytokines to the medium of the cells before, during or after the inoculation. IL-1, IL-6, […] and IFN-alpha were used in concentrations ranging from 0.25-250 Units/ml (U/ml), IFN-gamma was used in concentrations ranging from 0.25-1000 U/ml and IL-10 was used in concentrations from 0.13-125 U/ml. Cell cultures were either pre-treated with the cytokines for 24 hours before inoculation, treated during the inoculation or the cytokines were added in the medium after the inoculation. After 36 hours of incubation at 37° C. in an environment supplemented with 5% CO2, the cells were fixed by drying and frozen at −20° C. The plates were stained with an immuno-peroxydase monolayer assay (IPMA) as described by Sanchez et al. (2003, Vet Microbiol 95, 15-25) and the number of PCV2-positive cells was counted by light microscopy. In each plate a control was inoculated with an equal dose of mock-treated PCV2 (treated with MEM without cytokines). The number of infected cells in this well was used as the reference and all results were expressed as a ratio to this reference.
Two-fold dilutions of the BAL-fluids of the PRCV and mock-inoculated pigs were added to the medium of PCV2-inoculated PK-15 cells after inoculation. Concentrations of the added BAL-fluids ranged from 1.25 to 5%. Supernatants of ConA and mock-stimulated PBMC's were also added to the culture medium of PK-15 cells after inoculation in concentrations ranging from […] to 50%. […]

[4] = test system: PCV2-infected 3D4/31 cells; assay: Number of PCV2-infected 3D4/31 cells (IPMA) after cytokine treatment; type: cell-based, Porcine circovirus 2; conditions: 3D4/31 cells; any concentration, before, during or after inoculation
Description: as §1, §2

[5] = test system: PCV2 (field strain Imp-1121); assay: PCV2 replication in inoculated pigs given IFN-gamma or ConA; type: in vivo; conditions: pigs inoculated at 19 days of age; samples 10, 15, 21 days post inoculation
Procedure: Pigs are inoculated with PCV2 (field strain Imp-1121) at 19 days of age. These inoculated pigs are divided in 3 groups. One group contains control pigs (only PCV2). The second group of pigs receives recombinant IFN-gamma (100,000 U per pig every three days). The third group contains pigs that receive ConA (1.5 mg/kg every three days). At different times post inoculation (10, 15, 21 days) samples are collected and the replication of the virus is assessed.

[6] = IFN-gamma 500 U/ml pre-treatment

Question: With `Cl.N` [Ammonium chloride, ammonium chloride] as the molecule, how does the “effect on PCV2 infection in IFN-gamma treated cells (in words)” value [1] read?
Answer: enhanced PCV2 infection

Question: And the “effect on PCV2 infection compared to control (in words)” value [1]?
Answer: enhance PCV2 infection

Question: What about the “highest concentration exerting maximal effect without affecting cell viability (chosen)” value [1] of the same molecule?
Answer: 25000 µM

Question: And the “PCV2 titres at 1 hpi” value ([2]; IFN-gamma 0 U/ml)?
Answer: 2.1 TCID50 per 10^5 cells

Question: And the “PCV2 titres at 24 hpi” value ([2]; IFN-gamma 0 U/ml)?
Answer: 1.9 TCID50 per 10^5 cells

Question: What about the “PCV2 titres at 48 hpi” value ([2]; IFN-gamma 0 U/ml) of the same molecule?
Answer: 3.0 TCID50 per 10^5 cells

Question: And the “PCV2 titres at 72 hpi” value ([2]; IFN-gamma 0 U/ml)?
Answer: 3.8 TCID50 per 10^5 cells

Question: And the “PCV2 titres at 1 hpi” value [2, 6]?
Answer: 1.6 TCID50 per 10^5 cells

Question: And the “PCV2 titres at 24 hpi” value [2, 6]?
Answer: 3.0 TCID50 per 10^5 cells

Question: And the “PCV2 titres at 48 hpi” value [2, 6]?
Answer: 4.0 TCID50 per 10^5 cells

Question: And the “PCV2 titres at 72 hpi” value [2, 6]?
Answer: 4.8 TCID50 per 10^5 cells

Question: What does the source list for `CCN(CC)CCCC(C)Nc1ccnc2cc(Cl)ccc12` (stereo not shown) [Chloroquine diphosphate, chloroquine diphosphate]?
Answer: effect on PCV2 infection in IFN-gamma treated cells (in words) [1]: enhanced PCV2 infection; effect on PCV2 infection compared to control (in words) [1]: enhance PCV2 infection; highest concentration exerting maximal effect without affecting cell viability (chosen) [1]: 125 µM; PCV2 titres at 1 hpi ([2]; IFN-gamma 0 U/ml): 1.4 TCID50 per 10^5 cells; PCV2 titres at 24 hpi ([2]; IFN-gamma 0 U/ml): 1.8 TCID50 per 10^5 cells; PCV2 titres at 48 hpi ([2]; IFN-gamma 0 U/ml): 3.3 TCID50 per 10^5 cells; PCV2 titres at 72 hpi ([2]; IFN-gamma 0 U/ml): 4.3 TCID50 per 10^5 cells; PCV2 titres at 1 hpi [2, 6]: 1.6 TCID50 per 10^5 cells; PCV2 titres at 24 hpi [2, 6]: 2.3 TCID50 per 10^5 cells; PCV2 titres at 48 hpi [2, 6]: 4.0 TCID50 per 10^5 cells; PCV2 titres at 72 hpi [2, 6]: 4.6 TCID50 per 10^5 cells

Question: For `CC[C@@]1([C@@H]2O[C@@H]([C@H]3O[C@@](O)(CO)[C@H](C)C[C@@H]3C)C[C@@H]2C)CC[C@H]([C@]2(C)CC[C@]3(C[C@H](O)[C@@H](C)[C@@H]([C@@H](C)[C@@H](OC)[C@H](C)C(=O)O)O3)O2)O1` [Monensin, monensin], which “effect on PCV2 infection in IFN-gamma treated cells (in words)” value [1] is on record?
Answer: enhanced PCV2 infection

Question: What about the “effect on PCV2 infection compared to control (in words)” value [1] of the same molecule?
Answer: enhance PCV2 infection

Question: And the “highest concentration exerting maximal effect without affecting cell viability (chosen)” value [1]?
Answer: 6 µM

Question: And the “PCV2 titres at 1 hpi” value ([2]; IFN-gamma 0 U/ml)?
Answer: 1.9 TCID50 per 10^5 cells

Question: And the “PCV2 titres at 24 hpi” value ([2]; IFN-gamma 0 U/ml)?
Answer: 2.3 TCID50 per 10^5 cells

Question: What about the “PCV2 titres at 48 hpi” value ([2]; IFN-gamma 0 U/ml) of the same molecule?
Answer: 3.9 TCID50 per 10^5 cells

Question: And the “PCV2 titres at 72 hpi” value ([2]; IFN-gamma 0 U/ml)?
Answer: 3.6 TCID50 per 10^5 cells

Question: And the “PCV2 titres at 1 hpi” value [2, 6]?
Answer: 2.0 TCID50 per 10^5 cells

Question: What about the “PCV2 titres at 24 hpi” value [2, 6] of the same molecule?
Answer: 2.8 TCID50 per 10^5 cells

Question: What about the “PCV2 titres at 48 hpi” value [2, 6] of the same molecule?
Answer: 4.6 TCID50 per 10^5 cells

Question: What about the “PCV2 titres at 72 hpi” value [2, 6] of the same molecule?
Answer: 4.8 TCID50 per 10^5 cells

Question: How did the “change in the number of PCV2-positive cells (in words)” value (“change in the number” below) [3] turn out when TNF-alpha was run?
Answer: no significant change

Question: And the “change in the number” value [4]?
Answer: did not induce a significant change

Question: concanavalin A [ConA] was tested. Which “replication of PCV2 compared to control pigs (in words)” value [5] did it give?
Answer: increase in the replication of PCV2

B1: IL-6: Porcine interleukin 6 (R&D systems) (protein, UniProt P26893 30-212, looked up)
Interleukin-6: ERLEEDAKGDATSDKMLFTSPDKTEELIKYILGKISAMRKEMCEKYEKCENSKEVLAENNLNLPKMAEKDGCFQSGFNQETCLMRITTGLVEFQIYLDYLQKEYESNKGNVEAVQISTKALIQTLRQKGKNPDKATTPNPTTNAGLLDKLQSQNEWMKNTKIILILRSLEDFLQFSLRAIRIM
Question: For B1, which “change in the number” value [3] is on record?
Answer: no significant change

Question: And the “change in the number” value [4]?
Answer: did not induce a significant change

B2: IL-10: Porcine interleukin 10 (R&D systems) (protein, UniProt Q29055 19-175, looked up)
Interleukin-10: SIKSENSCIHFPTSLPHMLRELRAAFGPVKSFFQTKDQMGDLLLTGSLLEDFKGYLGCQALSEMIQFYLEDVMPKAESDGEDIKEHVNSLGEKLKTLRLRLRRCHQFLPCENKSKAVEEVKSAFSKLQERGVYKAMGEFDIFINYIEAYMTMKMRKN
Question: How did the “change in the number” value [3] turn out when B2 was run?
Answer: no significant change

Question: What about the “change in the number” value [4] of the same molecule?
Answer: did not induce a significant change
